Key:
[1] = Cytotoxicity in un-infected human HeLa Rh cells assessed as reduction in cell viability incubated for 3 days by MTT assay; format: cell-based
[2] = tested on: rhinovirus B14; test: Antiviral activity against Human rhinovirus B14 infected in human HeLa Rh cells assessed as protection against virus induced cytopathic effect after 3 days in presence of 10% inactivated FBS by MTT assay; format: functional, organism-based; settings: Rhinovirus B, 72 h
[3] = Selectivity index, ratio of CC50 for un-infected human HeLa Rh cells to EC50 for Human rhinovirus B14 infected in human HeLa Rh cells; format: toxicity, cell-based; settings: read-out: Ratio CC50/EC50

| Structure (SMILES) | CC50 at 72 h [1] | EC50 [2] | selectivity ratio [3] |
| --- | --- | --- | --- |
| COc1cc(CC(O)c2ccc(C#N)cc2)c([N+](=O)[O-])cc1OC (stereo not drawn) | 178 µM | 2.3 µM | 77.3 |
| COc1cc(C[C@H](O)c2ccc(-n3cccn3)cc2)c([N+](=O)[O-])cc1OC | > 271 µM | 0.35 µM | > 774 |
| COc1cc(CC(O)c2ccc(-c3cnn(C)c3)cc2)c([N+](=O)[O-])cc1OC (stereo not drawn) | 17.4 µM | > 270 µM |  |
| COc1cc(C[C@H](O)c2ccc(C#N)cc2)c([N+](=O)[O-])cc1OC | 178 µM | 0.26 µM | 685 |
| COc1cc(CC(O)c2ccncc2)c([N+](=O)[O-])cc1OC (stereo not drawn) | > 263 µM | 3.4 µM | > 77 |
| COc1cc(CC(O)c2ccc(N3CCCC3)cc2)c([N+](=O)[O-])cc1OC (stereo not drawn) | > 269 µM | 1.94 µM | > 139 |
| COc1cc(C[C@@H](O)c2ccc(-n3cccn3)cc2)c([N+](=O)[O-])cc1OC | > 271 µM | 42 µM | > 6.5 |
| COc1cc(CC(O)c2ccc(N3CCNCC3)cc2)c([N+](=O)[O-])cc1OC (stereo not drawn) | > 258 µM | 238 µM |  |
| COc1cc(C[C@@H](O)c2ccc(-n3cncn3)cc2)c([N+](=O)[O-])cc1OC | > 271 µM | > 50 µM |  |
| COc1cc(C[C@H](O)c2cccnc2)c([N+](=O)[O-])cc1OC | > 200 µM | 0.59 µM | > 339 |
| COc1cc(CC(O)c2ccc(C(F)(F)F)cc2)c([N+](=O)[O-])cc1OC (stereo not drawn) | 49.7 µM | 2 µM |  |
| COc1cc(CC(O)c2ccc(-c3ccsc3)cc2)c([N+](=O)[O-])cc1OC (stereo not drawn) | 11.5 µM | 0.54 µM | 21.3 |
| COc1cc(CC(O)c2ccc(-c3cc(C(F)(F)F)nn3C)cc2)c([N+](=O)[O-])cc1OC (stereo not drawn) | 12.1 µM | > 222 µM |  |
| COc1cc(C[C@@H](O)c2ccc(-c3cn[nH]c3)cc2)c([N+](=O)[O-])cc1OC | > 271 µM | 35.6 µM | > 7.74 |
| COc1cc(C[C@H](O)c2ccncc2)c([N+](=O)[O-])cc1OC | > 200 µM | 1.16 µM | > 172 |
| COc1cc(C[C@H](O)c2ccc(C(F)(F)F)cc2)c([N+](=O)[O-])cc1OC | 41.8 µM | 0.46 µM | 90.8 |
| COc1cc(CC(O)c2ccc(-c3cn[nH]c3)cc2)c([N+](=O)[O-])cc1OC (stereo not drawn) | > 271 µM | 0.76 µM | > 356 |

| Structure (SMILES) | CC50 at 72 h [1] | EC50 [2] | selectivity ratio [3] |
| --- | --- | --- | --- |
| COc1cc(CC(O)c2ccc(-c3ccco3)cc2)c([N+](=O)[O-])cc1OC (stereo not drawn) | 32 µM | 0.61 µM | 52.5 |
| COc1cc(C[C@@H](O)c2cccnc2)c([N+](=O)[O-])cc1OC | > 200 µM | > 200 µM |  |
| COc1cc(C[C@@H](O)c2ccncc2)c([N+](=O)[O-])cc1OC | 55.2 µM | > 200 µM |  |
| CCOC(=O)N1CCN(c2ccc(C(O)Cc3cc(OC)c(OC)cc3[N+](=O)[O-])cc2)CC1 (stereo not drawn) | 33.8 µM | 18.1 µM | 1.9 |
| COc1cc(CC(O)c2ccc(-n3cncn3)cc2)c([N+](=O)[O-])cc1OC (stereo not drawn) | > 271 µM | 0.92 µM | > 295 |
| COc1cc(CC(O)c2ccc(-n3cccn3)cc2)c([N+](=O)[O-])cc1OC (stereo not drawn) | > 271 µM | 0.58 µM | > 467 |
| COc1cc(CC(O)c2ccc(-c3cncnc3)cc2)c([N+](=O)[O-])cc1OC (stereo not drawn) | > 271 µM | 2.22 µM | > 122 |
| COc1cc(C[C@@H](O)c2ccc(C#N)cc2)c([N+](=O)[O-])cc1OC | 178 µM | 10.6 µM | 16.8 |
| COc1cc(C[C@@H](O)c2ccc(C(F)(F)F)cc2)c([N+](=O)[O-])cc1OC | 13.9 µM | > 200 µM |  |
| COc1cc(C[C@H](O)c2ccc(-n3cncn3)cc2)c([N+](=O)[O-])cc1OC | > 271 µM | 0.34 µM | > 797 |
| COc1cc(C[C@H](O)c2ccc(-c3cn[nH]c3)cc2)c([N+](=O)[O-])cc1OC | > 271 µM | 0.25 µM | > 1080 |
| COc1cc(CC(O)c2ccc(N3CCC(C)CC3)cc2)c([N+](=O)[O-])cc1OC (stereo not drawn) | > 250 µM | 1.91 µM | > 131 |
| COc1cc(CC(O)c2ccc(N3CCOCC3)cc2)c([N+](=O)[O-])cc1OC (stereo not drawn) | 193 µM | 11.7 µM | 16.5 |
| COc1cc(CC(O)c2ccc(N3CCCCC3)cc2)c([N+](=O)[O-])cc1OC (stereo not drawn) | 53.9 µM | 1.88 µM | 28.7 |
| COc1cc(CC(O)c2cccnc2)c([N+](=O)[O-])cc1OC (stereo not drawn) | > 263 µM | 2 µM | > 131 |
| COc1cc(CC(O)c2ccc(-c3ccc(C(F)(F)F)nc3)cc2)c([N+](=O)[O-])cc1OC (stereo not drawn) | 152 µM | 8.96 µM | 16.9 |
| Cc1cc(CCCOc2c(C)cc(-c3noc(C(F)(F)F)n3)cc2C)on1 [PLECONARIL] | > 131 µM |  | > 437 |
